ChEMBL document CHEMBL4813994, “Discovery of novel and potent PARP/PI3K dual inhibitors for the treatment of cancer” (Eur J Med Chem, 2021)

How the values were obtained:
[1] = target: Poly [ADP-ribose] polymerase 1 (Homo sapiens, UniProt P09874); assay: Inhibition of PARP1 (unknown origin) using biotin-NAD+ as substrate incubated for 1 hr by ELISA
[2] = target: Phosphatidylinositol 4,5-bisphosphate 3-kinase catalytic subunit alpha isoform (Homo sapiens, UniProt P42336); assay: Inhibition of PI3Kalpha (unknown origin) using PIP2 as substrate measured after 40 mins by ADP-glo plus luminescence assay
MDA-MB-468 [3] = assay: Antiproliferative activity against human BRCA proficient MDA-MB-468 cells assessed as reduction in cell growth incubated for 7 days by cell titer-glo assay; format: functional, cell-based; settings: MDA-MB-468, 168 h
HCC1937 = assay: Antiproliferative activity against human BRCA-1 deficient HCC1937 cells assessed as reduction in cell growth incubated for 7 days by cell titer-glo assay; format: functional, cell-based; settings: HCC1937, 168 h
SW-620 = assay: Antiproliferative activity against human BRCA-2 proficient SW-620 cells assessed as reduction in cell growth incubated for 7 days by cell titer-glo assay; format: functional, cell-based; settings: SW-620, 168 h
MDA-MB-231 = assay: Antiproliferative activity against human BRCA proficient MDA-MB-231 cells assessed as reduction in cell growth incubated for 7 days by cell titer-glo assay; format: functional, cell-based; settings: MDA-MB-231, 168 h
HCT-116 = assay: Antiproliferative activity against human BRCA-2 deficient HCT-116 cells assessed as reduction in cell growth incubated for 7 days by cell titer-glo assay; format: functional, cell-based; settings: HCT-116, 168 h
[4] = target: Phosphatidylinositol 4,5-bisphosphate 3-kinase catalytic subunit gamma isoform (Homo sapiens, UniProt P48736); assay: Inhibition of PI3Kgamma (unknown origin) using PIP2 as substrate measured after 1 hr by ADP-glo plus luminescence assay
[5] = target: Phosphatidylinositol 4,5-bisphosphate 3-kinase catalytic subunit beta isoform (Homo sapiens, UniProt P42338); assay: Inhibition of PI3Kbeta (unknown origin) using PIP2 as substrate measured after 1 hr by ADP-glo plus luminescence assay
[6] = target: Poly [ADP-ribose] polymerase 2 (Homo sapiens, UniProt Q9UGN5); assay: Inhibition of PARP2 (unknown origin) using biotin-NAD+ as substrate incubated for 1 hr by ELISA
MDA-MB-468 [7] = assay: Antitumor activity against human MDA-MB-468 cells xenografted in BALB/c mouse assessed as tumor growth inhibition at 20 mg/kg, ip once daily administered for 32 days relative to control; format: functional; settings: MDA-MB-468, ip, 768 h, time 32 day, read-out: TGI
[8] = target: T1, Phosphatidylinositol 4,5-bisphosphate 3-kinase catalytic subunit delta isoform (Homo sapiens, UniProt O00329); assay: Inhibition of PI3Kdelta (unknown origin) using PIP2 as substrate measured after 2 hrs by ADP-glo plus luminescence assay
T1 sequence (O00329 whole entry): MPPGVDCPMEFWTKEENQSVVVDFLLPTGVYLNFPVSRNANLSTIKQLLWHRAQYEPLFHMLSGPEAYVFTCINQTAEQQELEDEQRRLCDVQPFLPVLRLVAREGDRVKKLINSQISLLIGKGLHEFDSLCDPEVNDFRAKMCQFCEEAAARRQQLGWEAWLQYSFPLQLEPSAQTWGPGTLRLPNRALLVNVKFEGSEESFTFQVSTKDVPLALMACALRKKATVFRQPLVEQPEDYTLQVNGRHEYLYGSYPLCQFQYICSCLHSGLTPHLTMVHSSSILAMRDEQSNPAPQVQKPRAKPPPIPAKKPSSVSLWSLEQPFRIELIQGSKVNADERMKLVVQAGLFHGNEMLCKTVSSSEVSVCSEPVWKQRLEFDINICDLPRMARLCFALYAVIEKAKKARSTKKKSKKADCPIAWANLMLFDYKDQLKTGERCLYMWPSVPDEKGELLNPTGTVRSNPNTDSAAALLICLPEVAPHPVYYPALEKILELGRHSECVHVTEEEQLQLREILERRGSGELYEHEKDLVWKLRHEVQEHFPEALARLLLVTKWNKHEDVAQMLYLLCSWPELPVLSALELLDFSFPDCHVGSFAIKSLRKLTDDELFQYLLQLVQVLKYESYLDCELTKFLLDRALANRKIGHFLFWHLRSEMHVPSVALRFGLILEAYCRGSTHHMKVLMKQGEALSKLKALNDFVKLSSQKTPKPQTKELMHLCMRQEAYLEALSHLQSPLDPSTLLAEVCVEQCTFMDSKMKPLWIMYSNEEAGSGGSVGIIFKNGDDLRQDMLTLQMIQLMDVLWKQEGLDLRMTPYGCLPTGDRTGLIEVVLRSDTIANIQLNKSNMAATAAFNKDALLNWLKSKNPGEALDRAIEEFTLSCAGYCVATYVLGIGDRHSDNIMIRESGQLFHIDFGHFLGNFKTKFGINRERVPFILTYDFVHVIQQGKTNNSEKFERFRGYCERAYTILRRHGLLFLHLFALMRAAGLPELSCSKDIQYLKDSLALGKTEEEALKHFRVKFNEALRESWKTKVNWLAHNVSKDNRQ

[9] = target: Serine/threonine-protein kinase mTOR (Homo sapiens, UniProt P42345); assay: Inhibition of mTOR (unknown origin)
[10] = target: RAC-alpha serine/threonine-protein kinase (Homo sapiens, UniProt P31749); assay: Inhibition of AKT (unknown origin)
Chain of RAC-alpha serine/threonine-protein kinase (P31749 whole entry): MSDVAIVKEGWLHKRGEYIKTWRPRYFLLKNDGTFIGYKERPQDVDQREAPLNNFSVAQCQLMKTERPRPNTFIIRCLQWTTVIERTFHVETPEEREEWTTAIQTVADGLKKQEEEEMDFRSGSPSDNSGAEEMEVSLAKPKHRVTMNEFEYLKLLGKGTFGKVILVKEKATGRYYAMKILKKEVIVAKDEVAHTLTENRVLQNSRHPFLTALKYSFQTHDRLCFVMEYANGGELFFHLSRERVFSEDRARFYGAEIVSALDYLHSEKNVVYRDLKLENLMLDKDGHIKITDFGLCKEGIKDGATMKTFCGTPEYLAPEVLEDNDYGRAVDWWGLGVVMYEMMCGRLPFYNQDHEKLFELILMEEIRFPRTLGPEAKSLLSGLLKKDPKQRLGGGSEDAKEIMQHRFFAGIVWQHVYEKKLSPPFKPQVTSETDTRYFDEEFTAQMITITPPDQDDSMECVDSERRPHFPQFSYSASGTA

Chain of Poly [ADP-ribose] polymerase 1 (P09874 whole entry, canonical isoform): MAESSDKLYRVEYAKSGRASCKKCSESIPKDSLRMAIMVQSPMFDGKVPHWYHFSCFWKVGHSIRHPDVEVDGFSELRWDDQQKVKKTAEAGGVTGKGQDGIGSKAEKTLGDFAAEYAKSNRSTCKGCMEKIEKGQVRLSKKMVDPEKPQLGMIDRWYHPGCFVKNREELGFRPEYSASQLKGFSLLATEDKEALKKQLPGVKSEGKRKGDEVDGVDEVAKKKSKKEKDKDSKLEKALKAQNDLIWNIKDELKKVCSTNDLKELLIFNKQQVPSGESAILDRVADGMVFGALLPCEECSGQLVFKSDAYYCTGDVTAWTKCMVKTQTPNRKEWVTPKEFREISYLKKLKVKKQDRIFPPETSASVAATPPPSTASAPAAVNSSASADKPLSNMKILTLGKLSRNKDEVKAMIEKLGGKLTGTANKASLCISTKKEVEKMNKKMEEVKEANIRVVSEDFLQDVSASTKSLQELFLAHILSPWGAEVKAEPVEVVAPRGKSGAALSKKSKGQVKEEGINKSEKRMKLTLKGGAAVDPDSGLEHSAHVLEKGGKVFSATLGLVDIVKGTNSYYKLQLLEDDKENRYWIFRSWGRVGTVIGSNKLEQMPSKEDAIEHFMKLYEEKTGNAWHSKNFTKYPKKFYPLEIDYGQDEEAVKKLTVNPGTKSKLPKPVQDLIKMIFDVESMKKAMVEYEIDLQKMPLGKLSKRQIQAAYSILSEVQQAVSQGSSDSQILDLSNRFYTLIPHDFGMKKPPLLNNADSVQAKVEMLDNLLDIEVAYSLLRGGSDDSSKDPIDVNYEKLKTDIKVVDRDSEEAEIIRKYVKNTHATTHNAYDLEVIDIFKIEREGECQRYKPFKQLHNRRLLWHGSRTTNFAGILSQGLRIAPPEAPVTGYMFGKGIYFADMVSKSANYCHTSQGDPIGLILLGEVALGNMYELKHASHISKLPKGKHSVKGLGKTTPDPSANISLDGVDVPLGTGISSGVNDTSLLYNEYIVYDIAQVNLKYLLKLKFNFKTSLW
Chain of Phosphatidylinositol 4,5-bisphosphate 3-kinase catalytic subunit alpha isoform (P42336 whole entry, canonical isoform): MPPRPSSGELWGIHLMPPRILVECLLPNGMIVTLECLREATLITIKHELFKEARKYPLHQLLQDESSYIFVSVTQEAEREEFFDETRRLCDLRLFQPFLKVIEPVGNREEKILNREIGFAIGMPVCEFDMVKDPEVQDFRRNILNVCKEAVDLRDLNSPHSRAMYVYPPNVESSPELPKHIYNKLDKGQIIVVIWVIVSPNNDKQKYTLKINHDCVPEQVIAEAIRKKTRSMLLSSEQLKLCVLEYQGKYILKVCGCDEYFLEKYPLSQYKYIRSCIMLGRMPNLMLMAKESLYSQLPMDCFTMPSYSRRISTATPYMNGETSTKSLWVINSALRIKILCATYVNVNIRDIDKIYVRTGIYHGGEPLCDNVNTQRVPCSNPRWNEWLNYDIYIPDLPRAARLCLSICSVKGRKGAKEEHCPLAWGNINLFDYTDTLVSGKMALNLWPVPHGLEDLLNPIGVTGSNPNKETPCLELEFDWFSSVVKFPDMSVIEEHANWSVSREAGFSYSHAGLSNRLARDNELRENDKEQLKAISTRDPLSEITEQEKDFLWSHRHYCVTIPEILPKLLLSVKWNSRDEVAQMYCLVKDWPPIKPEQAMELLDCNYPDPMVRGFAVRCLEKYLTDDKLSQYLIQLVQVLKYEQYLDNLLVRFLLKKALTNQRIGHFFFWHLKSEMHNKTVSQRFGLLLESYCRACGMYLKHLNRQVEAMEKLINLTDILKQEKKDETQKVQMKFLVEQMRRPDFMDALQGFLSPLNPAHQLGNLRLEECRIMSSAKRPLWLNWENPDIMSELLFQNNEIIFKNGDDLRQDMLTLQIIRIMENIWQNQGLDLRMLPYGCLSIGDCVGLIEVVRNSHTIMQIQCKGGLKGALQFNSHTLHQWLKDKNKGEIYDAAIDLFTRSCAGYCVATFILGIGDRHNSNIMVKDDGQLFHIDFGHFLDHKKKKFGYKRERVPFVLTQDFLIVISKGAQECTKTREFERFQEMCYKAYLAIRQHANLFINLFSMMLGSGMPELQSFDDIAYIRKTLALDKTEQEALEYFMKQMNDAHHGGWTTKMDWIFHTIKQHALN
Chain of Poly [ADP-ribose] polymerase 2 (Q9UGN5 whole entry): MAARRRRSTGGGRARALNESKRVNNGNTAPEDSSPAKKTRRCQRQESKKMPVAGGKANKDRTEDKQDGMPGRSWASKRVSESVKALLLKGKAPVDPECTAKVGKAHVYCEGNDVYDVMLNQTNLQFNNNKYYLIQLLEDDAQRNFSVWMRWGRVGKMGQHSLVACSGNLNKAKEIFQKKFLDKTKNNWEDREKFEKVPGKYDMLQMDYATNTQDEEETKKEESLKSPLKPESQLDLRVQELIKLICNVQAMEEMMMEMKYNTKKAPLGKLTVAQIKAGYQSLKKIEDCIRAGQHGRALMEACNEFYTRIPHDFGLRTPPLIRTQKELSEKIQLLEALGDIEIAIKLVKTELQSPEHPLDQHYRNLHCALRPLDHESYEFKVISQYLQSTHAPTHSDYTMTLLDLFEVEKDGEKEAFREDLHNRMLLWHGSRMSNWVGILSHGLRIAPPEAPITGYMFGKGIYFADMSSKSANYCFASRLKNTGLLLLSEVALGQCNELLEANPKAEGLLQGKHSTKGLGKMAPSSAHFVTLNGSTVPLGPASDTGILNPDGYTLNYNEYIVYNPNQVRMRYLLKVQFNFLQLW
Chain of Phosphatidylinositol 4,5-bisphosphate 3-kinase catalytic subunit gamma isoform (P48736 whole entry, canonical isoform): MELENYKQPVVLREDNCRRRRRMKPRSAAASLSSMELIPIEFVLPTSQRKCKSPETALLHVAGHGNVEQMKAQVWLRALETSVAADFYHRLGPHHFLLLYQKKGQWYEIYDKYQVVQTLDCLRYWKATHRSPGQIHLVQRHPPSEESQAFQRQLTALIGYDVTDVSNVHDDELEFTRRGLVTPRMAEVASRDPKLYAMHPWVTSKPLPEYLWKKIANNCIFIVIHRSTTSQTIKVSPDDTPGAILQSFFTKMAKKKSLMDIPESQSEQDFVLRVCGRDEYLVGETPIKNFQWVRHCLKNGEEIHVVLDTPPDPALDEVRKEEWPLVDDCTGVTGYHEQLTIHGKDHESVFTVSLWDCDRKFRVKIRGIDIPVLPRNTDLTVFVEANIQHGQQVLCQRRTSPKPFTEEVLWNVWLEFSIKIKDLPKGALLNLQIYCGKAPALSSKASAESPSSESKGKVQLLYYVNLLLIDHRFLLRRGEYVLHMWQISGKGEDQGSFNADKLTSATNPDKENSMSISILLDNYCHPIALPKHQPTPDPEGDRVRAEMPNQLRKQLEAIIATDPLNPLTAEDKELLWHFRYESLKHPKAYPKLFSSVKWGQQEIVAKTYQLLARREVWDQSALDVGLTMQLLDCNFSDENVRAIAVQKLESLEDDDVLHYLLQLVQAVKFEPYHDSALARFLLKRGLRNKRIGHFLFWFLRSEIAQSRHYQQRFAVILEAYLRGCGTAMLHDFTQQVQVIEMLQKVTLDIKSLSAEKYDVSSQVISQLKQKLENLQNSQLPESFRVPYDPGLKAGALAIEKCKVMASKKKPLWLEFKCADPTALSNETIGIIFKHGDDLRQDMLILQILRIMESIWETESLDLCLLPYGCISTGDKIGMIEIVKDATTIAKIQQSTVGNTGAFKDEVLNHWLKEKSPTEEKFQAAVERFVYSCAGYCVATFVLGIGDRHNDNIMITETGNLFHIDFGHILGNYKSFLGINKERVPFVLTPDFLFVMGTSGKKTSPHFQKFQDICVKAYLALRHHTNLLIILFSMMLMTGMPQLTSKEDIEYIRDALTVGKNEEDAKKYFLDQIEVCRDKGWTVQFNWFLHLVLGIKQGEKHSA

## Cc1c(CN2CCN(C(=O)c3cc4cccc(C(N)=O)c4o3)CC2)sc2c(N3CCOCC3)nc(-c3ccc4[nH]ccc4c3)nc12
[1]
  IC50: 31.7 nM

## Nc1ncc(-c2nc(N3CCOCC3)c3sc(CN4CCN(C(=O)c5cc(Cc6n[nH]c(=O)c7ccccc67)ccc5F)CC4)cc3n2)cn1
[2]
  IC50: 3.7 nM
[1]
  IC50: 8.8 nM

## Cc1c(CN2CCN(C(=O)c3cc4cccc(C(N)=O)c4o3)CC2)sc2c(N3CCOCC3)nc(-c3cccc4[nH]ccc34)nc12
[2]
  IC50: 1140 nM
[1]
  IC50: 140 nM

## Cc1c(CN2CCN(C(=O)c3cc4cccc(C(N)=O)c4o3)CC2)sc2c(N3CCOCC3)nc(-c3ccc(F)c(N)c3)nc12
[2]
  IC50: 1380 nM
MDA-MB-468 [3]
  IC50: > 10000 nM
HCC1937
  IC50: 5380 nM
SW-620
  IC50: > 10000 nM
MDA-MB-231
  IC50: > 10000 nM
[1]
  IC50: 16.7 nM
HCT-116
  IC50: 5840 nM

## Cc1c(CN2CCN(C(=O)c3cc4cccc(C(N)=O)c4o3)CC2)sc2c(N3CCOCC3)nc(-c3cccc4[nH]ncc34)nc12
[2]
  IC50: 168 nM
MDA-MB-468 [3]
  IC50: > 10000 nM
HCC1937
  IC50: 800 nM
SW-620
  IC50: 3320 nM
MDA-MB-231
  IC50: 3300 nM
[1]
  IC50: 42.4 nM
HCT-116
  IC50: 890 nM

## Cc1c(CN2CCN(C(=O)c3cc(Cc4n[nH]c(=O)c5ccccc45)ccc3F)CC2)sc2c(N3CCOCC3)nc(-c3cnc(N)nc3)nc12
[2]
  IC50: 2 nM
[4]
  IC50: 25 nM
[5]
  IC50: 53 nM
MDA-MB-468 [3]
  IC50: 1080 nM
[6]
  IC50: 0.89 nM
HCC1937
  IC50: 410 nM
MDA-MB-468 [7]
  inhibition in vivo at 20 mg/kg: 56.4%
SW-620
  IC50: 920 nM
MDA-MB-231
  IC50: 1300 nM
[8]
  IC50: 6.8 nM
[9]
  IC50: 50 nM
[1]
  IC50: 1.5 nM
[10]
  IC50: > 100000 nM
HCT-116
  IC50: 310 nM

## Cc1c(CN2CCN(C(=O)c3cc4cccc(C(N)=O)c4o3)CC2)sc2c(N3CCOCC3)nc(-c3ccc(N)nc3)nc12
[2]
  IC50: 14 nM
[1]
  IC50: 1.9 nM

## Cc1c(CN2CCN(C(=O)c3cc4cccc(C(N)=O)c4o3)CC2)sc2c(N3CCOCC3)nc(-c3ccc(N)c(F)c3)nc12
[2]
  IC50: 1180 nM
MDA-MB-468 [3]
  IC50: > 10000 nM
HCC1937
  IC50: 3860 nM
SW-620
  IC50: > 10000 nM
MDA-MB-231
  IC50: > 10000 nM
[1]
  IC50: 9.18 nM
HCT-116
  IC50: 2320 nM

## Cc1c(CN2CCN(C(=O)c3cc4cccc(C(N)=O)c4o3)CC2)sc2c(N3CCOCC3)nc(-c3cnc(N)cc3C(F)(F)F)nc12
[2]
  IC50: 2.3 nM
MDA-MB-468 [3]
  IC50: 1630 nM
HCC1937
  IC50: 500 nM
SW-620
  IC50: 3370 nM
MDA-MB-231
  IC50: 3170 nM
[1]
  IC50: 101 nM
HCT-116
  IC50: 690 nM
